Test results as given in paper PMC3911823 (The FEBS journal, 2011).
Numbering of substitutions follows the chain as printed. pIC50: −log10 of the molar value.

Tests used:
P450 2B4 E474D = target: T1, P450 2B4 E474D (Oryctolagus cuniculus, UniProt P00178, E474D); experiment: Inhibition of 7-EFC O-deethylation by imidazole inhibitors; type: biochemical, rabbit (Oryctolagus cuniculus)
T1 sequence (P00178 with tags, fused parts or gaps E474D limits assumed): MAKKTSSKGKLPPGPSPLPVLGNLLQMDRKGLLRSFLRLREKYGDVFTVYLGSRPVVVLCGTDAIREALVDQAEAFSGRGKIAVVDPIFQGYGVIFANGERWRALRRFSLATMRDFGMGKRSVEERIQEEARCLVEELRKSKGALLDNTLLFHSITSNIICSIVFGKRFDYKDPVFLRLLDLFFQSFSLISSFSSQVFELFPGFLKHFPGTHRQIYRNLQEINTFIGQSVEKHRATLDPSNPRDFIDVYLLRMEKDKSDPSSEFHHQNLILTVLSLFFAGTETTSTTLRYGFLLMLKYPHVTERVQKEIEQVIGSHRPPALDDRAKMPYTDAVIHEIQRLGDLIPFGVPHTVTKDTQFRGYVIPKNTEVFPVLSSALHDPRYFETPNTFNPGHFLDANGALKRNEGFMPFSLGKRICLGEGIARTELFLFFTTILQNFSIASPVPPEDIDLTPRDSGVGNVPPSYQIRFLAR

P450 2B4 E474Q = target: T2, P450 2B4 E474Q (Oryctolagus cuniculus, UniProt P00178, E474Q); type: biochemical, rabbit (Oryctolagus cuniculus)
T2 sequence (P00178 with tags, fused parts or gaps E474Q limits assumed): T1 sequence (P00178 with tags, fused parts or gaps E474D limits assumed) with D455Q

| Compound | pIC50 (P450 2B4 E474D) | Ratio 4-CPI IC50/Bifonazole IC50 (P450 2B4 E474D; 2B4 E474D, 50 μM 7-EFC as substrate) | decrease (change) in kcat versus wild type (P450 2B4 E474Q) | kcat (P450 2B4 E474Q) [s⁻¹] | kcat/S50 (P450 2B4 E474Q) | S50 (P450 2B4 E474Q; Hill equation) [µM] |
| --- | --- | --- | --- | --- | --- | --- |
| Clc1ccc(-c2c[nH]cn2)cc1 [4-CPI, 4-(4-chlorophenyl)imidazole] | 6.62 | 0.39 |  |  |  |  |
| O=c1ccc2nc3ccc(OCc4ccccc4)cc3oc-2c1 [7-BR, 7-benzyloxyresorufin] |  |  | ~ 4.5 fold | 0.0283 ± 0.005 | 0.35 | 4.8 ± 0.5 |
